Measurements taken from patent publication EP4722219A1 (Gan & Lee Pharmaceuticals Co., Ltd., priority 2023, dated 2024).

Key:
Format in all cases: cell-based
MCF-7 cells = experiment: Inhibition of cell proliferation in MCF-7 cells (CCK-8); conditions: Homo sapiens, MCF7, 144 h, MCF-7 cell proliferation, 6 days treatment
Summary of the method: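 IC50 from CCK-8 viability-based inhibition after 6-day treatment of MCF-7 cells (800 cells/well, 10% FBS DMEM, 37 °C, 5% CO2) with serially varied compound concentrations.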

ERα [1] = target: T1, ERα (Homo sapiens, UniProt P03372); experiment: ERα degradation in MCF-7 cells (Western blot); set-up: host or cells: MCF-7; conditions: 4 hours
T1 sequence (P03372 1-595): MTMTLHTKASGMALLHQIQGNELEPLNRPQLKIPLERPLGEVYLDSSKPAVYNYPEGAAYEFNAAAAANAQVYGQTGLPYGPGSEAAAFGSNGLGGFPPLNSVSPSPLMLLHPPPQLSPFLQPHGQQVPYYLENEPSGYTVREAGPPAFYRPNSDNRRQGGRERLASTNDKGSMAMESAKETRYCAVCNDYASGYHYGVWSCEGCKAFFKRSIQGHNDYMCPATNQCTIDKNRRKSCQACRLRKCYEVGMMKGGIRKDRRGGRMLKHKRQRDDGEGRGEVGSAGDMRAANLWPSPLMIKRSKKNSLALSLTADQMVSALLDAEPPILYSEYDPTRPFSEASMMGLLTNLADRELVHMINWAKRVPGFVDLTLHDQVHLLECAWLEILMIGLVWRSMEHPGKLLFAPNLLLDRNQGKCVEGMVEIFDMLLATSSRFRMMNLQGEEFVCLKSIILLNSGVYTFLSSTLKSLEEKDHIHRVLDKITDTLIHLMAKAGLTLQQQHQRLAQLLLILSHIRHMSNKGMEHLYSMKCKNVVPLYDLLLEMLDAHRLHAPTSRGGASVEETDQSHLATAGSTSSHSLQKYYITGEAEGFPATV
Method: Test Example 4 Effect of PROTAC Compounds Disclosed in the Present Invention on ERα Degradation in MCF-7 Cells
MCF-7 (ATCC) cells were cultured in DMEM medium (11995-065, Gibco) containing 10% FBS (10099141C, Gibco) at 37°C and 5% CO2 until they entered the logarithmic growth phase. MCF-7 cells were plated at a density of 3×10^5 cells/well in a 6-well plate and incubated at 37°C, 5% CO2 for 24 hours. After cell attachment, 1µL of compound in dimethyl sulfoxide (final concentration 0.15-1000nM) was added and incubated for another 4 hours at 37°C, 5% CO2 incubator. After 4 hours, the culture medium was discarded, and each well was washed once with 1 mL of pre-chilled 1× DPBS. The cells were then lysed with 50 µL of RIPA lysis buffer (P0013B, Beyotime) and 1× protease inhibitor cocktail (P1005, Beyotime). After incubation on ice for 20 minutes, the cells were centrifuged at 14,000 g at 4°C for 30 minutes. The supernatant was carefully collected and analyzed for ERα protein levels by immunoblotting.
(§1) Western blotting: The total protein concentration in the collected cell lysate supernatant was determined using the BCA protein concentration assay kit (enhanced) (P0009, Beyotime). Based on the total protein concentration determined by BCA, the protein concentration was adjusted to 1 µg/µL using RIPA lysis buffer and 5× SDS-PAGE protein loading buffer (MB01015, GenScript). The protein was denatured in a 95°C water bath for 5 minutes. After denaturation, the condensed water on the tube wall was collected by centrifugation and used as the loading sample. 20µL of the loading sample (20 µg of total protein) was added to the sample well of a 12% precast gel (M00669, GenScript). Electrophoresis was performed at 100 V for 20 minutes, followed by switching to 150 V for 40 minutes. After electrophoresis, the proteins from the SDS-PAGE gel were transferred to a PVDF membrane at a constant voltage of 100 V for 60 minutes. After transfer, the PVDF membrane corresponding to the ERα protein and internal reference protein was cut and incubated in 1× QµickBlock blocking buffer (P0252, Beyotime) for 30 minutes at room temperature on a shaker. After blocking, the ERα primary antibody (1:1000, 8644S, CST) was added and incubated overnight at 4°C on a shaker. The PVDF membrane was washed three times with 1× TBST buffer for 5 minutes each. Rabbit IgG (H+L) secondary antibody (1:7500, SA5-35571, Invitrogen) was added and incubated for 1 hour at room temperature on a shaker. The membrane was then washed again three times with 1× TBST buffer for 5 minutes each. Finally, the membrane was imaged using a dual-color infrared laser imaging system (Odyssey DLx, LICOR). Protein maps were analyzed for grayscale value using Image Studio Lite software. The grayscale correction value for each sample was calculated using the formula: grayscale correction value = grayscale value of the target protein / grayscale value of the corresponding internal reference. Then the grayscale correction values of the compound group and the control group were compared to calculate the degradation rate of the compound. Table 4 Degradation rate of ERα by PROTAC compounds of the present invention and positive control in MCF-7 cells (%)

T-47D cells = experiment: Inhibition of cell proliferation in T-47D cells (CCK-8); conditions: Homo sapiens, T47D, 144 h, 6 days treatment, CCK-8 cell viability
Summary of the method: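 Viability by CCK-8 after a 6-day, 37 °C/5% CO2 exposure of T-47D cells (3,000/well, RPMI-1640 + 10% FBS) to graded PROTAC concentrations. Inhibition rates gave the IC50.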

ERα [2] = target: T1, ERα; experiment: ERα degradation in T-47D cells (Western blot); conditions: 4 hours
Method: as §1
Test Example 5 Degradation of ERα by the PROTAC compounds disclosed in the present invention in T-47D cells
T-47D (ATCC) cells were cultured in PRMI-1640 medium (30-2001, ATCC) containing 10% FBS (10099141C, Gibco) at 37°C and 5% CO2 until they entered the logarithmic growth phase. T-47D cells were seeded at a density of 3×10^5 cells/well in a 6-well plate and incubated at 37°C, 5% CO2 for 24 hours. After cell attachment, 1 µL of compound dimethyl sulfoxide solution (final concentration 0.15-1000 nM) was added and incubated for another 4 hours at 37°C, 5% CO2 incubator. After 4 hours, the culture medium was discarded, and each well was washed once with 1 mL of pre-chilled 1× DPBS. The cells were then lysed with 50 µL of RIPA lysis buffer (P0013B, Beyotime) and 1× protease inhibitor cocktail (P1005, Beyotime). After incubation on ice for 20 minutes, the cells were centrifuged at 14,000 g at 4°C for 30 minutes. The supernatant was carefully collected and analyzed for ERα protein levels by immunoblotting. Table 5 Degradation rate of ERα by PROTAC compounds of the present invention and positive control sample in T-47D cells (%)

Row | Compound | IC50 (MCF-7 cells) [nM] | Degradation rate of ERα in MCF-7 cells (%) (ERα [1]; 1nM) | Degradation rate of ERα in MCF-7 cells (%) (ERα [1]; 10nM) | IC50 (T-47D cells) [nM] | Degradation rate of ERα in T-47D cells (%) (ERα [2]; 1nM) | Degradation rate of ERα in T-47D cells (%) (ERα [2]; 10nM)
1 | O=C1CCC(N2Cc3c(ccc4c3OCC43CCC4(CCN(C5CC6(CCN(c7ccc([C@@H]8c9ccc(O)cc9CC[C@@H]8c8ccccc8)cc7)CC6)C5)CC4)CC3)C2=O)C(=O)N1 (stereo partly drawn) [ER-P-3] | < 0.256 | 25 | 69 | 3.02 | 28 | 73
2 | O=C1CCC(N2Cc3c(ccc4c3OCC43CCC4(CC3)CN(C(=O)C3CCN(c5ccc([C@@H]6c7ccc(O)cc7CC[C@@H]6c6ccccc6)cc5)CC3)C4)C2=O)C(=O)N1 (stereo partly drawn) [ER-P-4, 3-(1-(1-(4-(((1R,2S)-6-hydroxy-2-phenyl-1,2,3,4-tetrahydronaphthalen-1-yl)phenyl)piperidine-4-carbonyl)-6'-oxo-6',8'-dihydro-2'H,7'H-diazetidine-3,1'-cyclohexane-4',3"-furo[2,3-e]isoindol]-7'-yl)piperidine-2,6-dione] | 92000 | 9 | 20 | 3.63 | 21 | 54
3 | O=C1CCC(N2Cc3c(ccc4c3OCC43CCC4(CCN(C5CCN(C(=O)C6CCN(c7ccc([C@@H]8c9ccc(O)cc9CC[C@@H]8c8ccccc8)cc7)CC6)CC5)CC4)CC3)C2=O)C(=O)N1 (stereo partly drawn) [ER-P-5] | < 0.256 | 25 | 57 | 0.96 | 39 | 79
4 | O=C1CCC(N2Cc3c(ccc4c3OCC43CCC4(CC3)CN(C3CCN(C(=O)C5CCN(c6ccc([C@@H]7c8ccc(O)cc8CC[C@@H]7c7ccccc7)cc6)CC5)CC3)C4)C2=O)C(=O)N1 (stereo partly drawn) [ER-P-6] | < 0.256 | 55 | 71 | 0.86 | 61 | 83
5 | Cn1c(=O)n(C2CCC(=O)NC2=O)c2ccc3c(c21)C1(CCN(C(=O)[C@H]2CC[C@H](CN4CCN(c5ccc([C@@H]6c7ccc(O)cc7CC[C@@H]6c6ccccc6)cc5)CC4)CC2)CC1)CO3 (stereo partly drawn) [ER-P-7] | 603 | 22 | 62 | 1.74 | 44 | 77
6 | O=C1CCC(N2Cc3c(ccc4c3OCC43CCC4(CC3)CN(C3CCC5(CC3)CCN(c3ccc([C@@H]6c7ccc(O)cc7CC[C@@H]6c6ccccc6)cc3)CC5)C4)C2=O)C(=O)N1 (stereo partly drawn) [ER-P-9] | 7.44 | 30 | 71 | 1.96 | 46 | 83
7 | O=C1CCC(N2Cc3c(ccc4c3OCC43CCC4(CC3)CN(C3CCC5(CC3)CN(c3ccc([C@@H]6c7ccc(O)cc7CC[C@@H]6c6ccccc6)cc3)C5)C4)C2=O)C(=O)N1 (stereo partly drawn) [ER-P-10, 3-(1-(2-(4-((1R,2S)-6-hydroxy-2-phenyl-1,2,3,4-tetrahydronaphthalen-1-yl)phenyl)-2-azaspiro[3.5]nonan-7-yl)-6'-oxo-6',8'-dihydro-2'H,7'H-dipyrazole[azetidine-3,1'-cyclohexane-4',3"-furo[2,3-e]isoindol]-7'-yl)piperidine-2,6-dione] | 8.53 | 24 | 57 | 1.63 | 51 | 77
8 | Cn1c(=O)n(C2CCC(=O)NC2=O)c2cc3c(cc21)C1(CCN(C2CCN(c4ccc([C@@H]5c6ccc(O)cc6CC[C@@H]5c5ccccc5)cc4)CC2)CC1)CO3 (stereo partly drawn) [ER-P-11, 3-(1'-(1-(4-((1R,2S)-6-hydroxy-2-phenyl-1,2,3,4-tetrahydronaphthalen-1-yl)phenyl)piperidin-4-yl)-1-methyl-2-oxo-1,2-dihydro-3H,6H-spiro[benzofuro[5,6-d]imidazole-7,4'-piperidin]-3-yl)piperidine-2,6-dione] | 3540 | -18 | -33 | 20.8 | 12 | 12
9 | Cn1c(=O)n(C2CCC(=O)NC2=O)c2cc3c(cc21)C1(CCN(C2CC4(CCN(c5ccc([C@@H]6c7ccc(O)cc7CC[C@@H]6c6ccccc6)cc5)CC4)C2)CC1)CO3 (stereo partly drawn) [ER-P-12, 3-(1'-(7-(4-((1R,2S)-6-hydroxy-2-phenyl-1,2,3,4-tetrahydronaphthalen-1-yl)phenyl)-7-azaspiro[3.5]nonan-2-yl)-1-methyl-2-oxo-1,2-dihydro-3H,6H-spiro[benzofuro[5,6-d]imidazole-7,4'-piperidin]-3-yl)piperidine-2,6-dione] | 25.2 | -9 | -11 | 2.4 | 34 | 38
10 | Cn1c(=O)n(C2CCC(=O)NC2=O)c2ccc3c(c21)OCC31CCN(C2CCN(C(=O)C3CCN(c4ccc([C@@H]5c6ccc(O)cc6CC[C@@H]5c5ccccc5)cc4)CC3)CC2)CC1 (stereo partly drawn) [ER-P-13, 3-(1'-(1-(1-(4-((1R,2S)-6-hydroxy-2-phenyl-1,2,3,4-tetrahydronaphthalen-1-yl)phenyl)piperidine-4-carbonyl)piperidin-4-yl)-1-methyl-2-oxo-1,2-dihydro-3H,7H-spiro[benzofuro[6,7-d]imidazole-6,4'-piperidin]-3-yl)piperidine-2,6-dione] | 18.9 | 72 | 85 | 0.47 | 79 | 74
